{
  "source": "paper PMC4994063",
  "about": "“Harnessing Fluorine–Sulfur Contacts and Multipolar Interactions for the Design of p53 Mutant Y220C Rescue Drugs” (ACS Chemical Biology, 2016)",
  "key": {"[1]": {"target": "T1, p53-Y220C DBD (Homo sapiens, UniProt P04637, M133L/N239Y/N268D/V203A/Y220C)", "T1 construct": "Stabilized p53-Y220C DBD (residues 94–312) was expressed and purified as previously described; made in house", "design": "method as in Boeckler et al. (24)", "conditions": "data taken from the literature; ref Boeckler et al. (24); read-out: ITC KD; cited from earlier work"}, "[2]": {"target": "T2, p53-Y220C DNA-binding domain (DBD) (Homo sapiens, UniProt P04637, M133L/N239Y/N268D/V203A/Y220C)", "T2 construct": "Stabilized p53-Y220C DBD (residues 94–312) was expressed and purified as previously described; made in house", "test": "Differential scanning fluorimetry (DSF), stabilization of p53-Y220C DBD", "conditions": "8 μM stabilized p53-Y220C DBD, 25 mM KPi pH 7.2, 5% DMSO, triplicate; for DSF ΔTm at 125 μM: compound 125 μM; for ΔTm at 125 µM: pH 7.2, compound 125 μM", "method": "We tested […]083 (1) and analogues 2-6 for their stabilization of the p53-Y220C DNA-binding domain (DBD) using differential scanning fluorimetry (DSF; Table 1). The N-2,2,2-trifluoroethyl substituted carbazoles 4 and 6 increased stability of the p53-Y220C DBD by 1.2 K at a compound concentration of 125 μM, showing a clear improvement over their N-ethyl substituted counterparts […]083 (1) and 5 (ΔTm = 0.8 K and ΔTm = 0.6 K, respectively). […] DSF was performed as described.[26] Briefly, melting temperatures (Tm) were determined using 8 μM protein (stabilized p53-Y220C DBD) and 10 × SYPRO orange (Life Technologies) in a 25 mM KPi (pH 7.2), 150 mM NaCl, and 1 mM TCEP assay buffer at a final DMSO concentration of 5% (v/v). ΔTm values were calculated as ΔTm= Tm (protein + compound) - Tm (protein)). All samples were measured in triplicate."}, "[3]": {"target": "T1, p53-Y220C DBD", "test": "Isothermal titration calorimetry (ITC)", "format": "binding", "conditions": "for pKd: 50 μM protein, 25 mM KPi pH 7.2, 150 mM NaCl, 1 mM TCEP, 5% DMSO; for increase in affinity (ITC KD) compared to the nonfluorinated parent compounds (1 and 5): 4 vs 1, 6 vs 5; for improvement of free energy of binding compared with parent compounds: at 293 K, vs PhiKan083 (1) and 5", "method": "We tested PhiKan083 (1) and analogues 2–6 for their stabilization of the p53-Y220C DNA-binding domain (DBD) using differential scanning fluorimetry (DSF; Table 1). The N-2,2,2-trifluoroethyl substituted carbazoles 4 and 6 increased stability of the p53-Y220C DBD by 1.2 K at a compound concentration of 125 μM, showing a clear improvement over their N-ethyl substituted counterparts PhiKan083 (1) and 5 (ΔTm = 0.8 K and ΔTm = 0.6 K, respectively).\nITC experiments were conducted as described.[26] Samples for the cell unit contained 50 μM protein in a 25 mM KPi (pH 7.2), 150 mM NaCl, 1 mM TCEP, and 5% (v/v) DMSO assay buffer. The syringe contained 2–5 mM compound in the same assay buffer."}},
  "note": "pKd: −log10 of the molar value. Like-named read-outs stand apart in the source and are kept apart here.",
  "data": [
    {"smiles": "CCn1c2ccccc2c2cc(CNC)ccc21", "note": "[Compound 1, 1-(9-ethyl-9H-carbazole-3-yl)-N-methylmethanamine]", "values": [
      {"measurement": "pKd", "setting": "[1]", "result": 3.91}
    ]},
    {"smiles": "CNCc1ccc2c(c1)c1ccccc1n2CCF", "note": "[Compound 2, 1-(9-(2-Fluoroethyl)-9H-carbazol-3-yl)-N-methylmethanamine]", "values": [
      {"measurement": "DSF ΔTm at 125 μM", "setting": "[2]", "result": 0.4, "unit": "K"},
      {"measurement": "ΔTm at 125 µM", "setting": "[2]", "result": 0.3, "unit": "°C"},
      {"measurement": "pKd", "setting": "[3]", "result": 3.86}
    ]},
    {"smiles": "CNCc1ccc2c(c1)c1ccccc1n2CC(F)F", "note": "[Compound 3, 1-(9-(2,2-Difluoroethyl)-9H-carbazol-3-yl)-N-methylmethanamine]", "values": [
      {"measurement": "DSF ΔTm at 125 μM", "setting": "[2]", "result": 0.3, "unit": "K"},
      {"measurement": "ΔTm at 125 µM", "setting": "[2]", "result": 0.4, "unit": "°C"},
      {"measurement": "pKd", "setting": "[3]", "result": 4.00}
    ]},
    {"smiles": "CNCc1ccc2c(c1)c1ccccc1n2CC(F)(F)F", "note": "[Compound 4, 1-(9-(2,2,2-Trifluoroethyl)-9H-carbazol-3-yl)-N-methylmethanamine]", "values": [
      {"measurement": "ΔTm at 125 µM", "setting": "[2]", "result": 1.2, "unit": "°C"},
      {"measurement": "ligand efficiency (LE)", "setting": "[3]", "result": 0.3, "unit": "kcal mol^–1 atom^–1"},
      {"measurement": "pKd", "setting": "[3]", "result": 4.55},
      {"measurement": "increase in affinity (ITC KD) compared to the nonfluorinated parent compounds (1 and 5)", "setting": "[3]", "result": 5, "unit": "fold"},
      {"measurement": "improvement of free energy of binding compared with parent compounds", "setting": "[3]", "result": "approximately −0.9 kcal/mol"}
    ]},
    {"smiles": "CCn1c2ccccc2c2cc(CN(C)C)ccc21", "note": "[Compound 5, 1-(9-Ethyl-9H-carbazol-3-yl)-N,N-dimethylmethanamine]", "values": [
      {"measurement": "ΔTm at 125 µM", "setting": "[2]", "result": 0.6, "unit": "°C"},
      {"measurement": "pKd", "setting": "[3]", "result": 3.77},
      {"measurement": "drop in affinity due to additional methyl group at the amine", "setting": "[3]; 5 vs 1", "result": 30, "unit": "%"}
    ]},
    {"smiles": "CN(C)Cc1ccc2c(c1)c1ccccc1n2CC(F)(F)F", "note": "[Compound 6, 1-(9-(2,2,2-Trifluoroethyl)-9H-carbazol-3-yl)-N,N-dimethylmethanamine]", "values": [
      {"measurement": "ΔTm at 125 µM", "setting": "[2]", "result": 1.2, "unit": "°C"},
      {"measurement": "ligand efficiency (LE)", "setting": "[3]", "result": 0.3, "unit": "kcal mol^–1 atom^–1"},
      {"measurement": "pKd", "setting": "[3]", "result": 4.43},
      {"measurement": "increase in affinity (ITC KD) compared to the nonfluorinated parent compounds (1 and 5)", "setting": "[3]", "result": 5, "unit": "fold"},
      {"measurement": "improvement of free energy of binding compared with parent compounds", "setting": "[3]", "result": "approximately −0.9 kcal/mol"}
    ]}
  ]
}
